In brackets after ≈: the same amount, converted by molar mass. Positions of bridges follow the written chain, without caps; N, C: chain ends. Residues, ends and D or L forms follow the SMILES beside them.
Tests used:
S. aureus ATCC 25923 [1] = assay: MIC assay; format: cell-based, Staphylococcus aureus; conditions: 96-well plate, 10^5 CFU/mL, 37 °C, 12 to 18 h
Protocol: (§1) A series of concentration gradients of peptide solution (10, 20, 40, 80, 160, 320, 640, and 1280 µg/mL) and the bacterial suspension (10^5 CFU/mL) were added to a 96-well plate at a volume ratio of 10 µL: 90 µL. Subsequently, the plate was incubated at 37 °C for 12 to 18 h. The concentration in the final well of the 96-well plate where no bacterial growth is evident corresponds to the MIC value.

S. aureus CVCC 546 [2] = assay: MIC assay; format: cell-based, Staphylococcus aureus; conditions: 96-well plate, 10^5 CFU/mL, 37 °C, 12 to 18 h
Protocol: as §1

[3] = tested on: S. epidermidis ATCC 35984; assay: MIC assay; format: cell-based, Staphylococcus epidermidis; conditions: 96-well plate, 10^5 CFU/mL, 37 °C, 12 to 18 h
Protocol: as §1

[4] = tested on: Escherichia coli ATCC 25922; assay: MIC assay; format: cell-based; conditions: 96-well plate, 10^5 CFU/mL, 37 °C, 12 to 18 h
Protocol: as §1

[5] = tested on: Pseudomonas aeruginosa ATCC 10104; assay: MIC assay; format: cell-based; conditions: 96-well plate, 10^5 CFU/mL, 37 °C, 12 to 18 h
Protocol: as §1

[6] = tested on: Staphylococcus aureus ATCC 43300; assay: MIC assay; format: cell-based; conditions: 96-well plate, 10^5 CFU/mL, 37 °C, 12 to 18 h
Protocol: as §1

[7] = tested on: Staphylococcus epidermidis ATCC 12228; assay: MIC assay; format: cell-based; conditions: 96-well plate, 10^5 CFU/mL, 37 °C, 12 to 18 h
Protocol: as §1

[8] = tested on: Streptococcus agalactiae ATCC 13813; assay: MIC assay; format: cell-based; conditions: 96-well plate, 10^5 CFU/mL, 37 °C, 12 to 18 h
Protocol: as §1

[9] = tested on: Streptococcus dysgalactiae CVCC 3938; assay: MIC assay; format: cell-based; conditions: 96-well plate, 10^5 CFU/mL, 37 °C, 12 to 18 h
Protocol: as §1

S. aureus ATCC 25923 [10] = assay: MBC assay; format: cell-based, Staphylococcus aureus; conditions: colony counting, 99.9% criterion
From the text: (§2) Microbial cultures are quantified at concentrations surpassing the MIC to ascertain the number of viable bacterial cells. The lowest concentration at which the number of colonies is less than 99.9% at the time of initial inoculation is defined as MBC, which is capable of killing the bacteria.

S. aureus CVCC 546 [11] = assay: MBC assay; format: cell-based, Staphylococcus aureus; conditions: colony counting, 99.9% criterion
From the text: as §2

[12] = tested on: S. epidermidis ATCC 35984; assay: MBC assay; format: cell-based, Staphylococcus epidermidis; conditions: colony counting, 99.9% criterion
From the text: as §2

[13] = tested on: Escherichia coli ATCC 25922; assay: MBC assay; format: cell-based; conditions: colony counting, 99.9% criterion
From the text: as §2

[14] = tested on: Pseudomonas aeruginosa ATCC 10104; assay: MBC assay; format: cell-based; conditions: colony counting, 99.9% criterion
From the text: as §2

[15] = tested on: Staphylococcus aureus ATCC 43300; assay: MBC assay; format: cell-based; conditions: colony counting at concentrations surpassing the MIC, 99.9% criterion
From the text: as §2

[16] = tested on: Staphylococcus epidermidis ATCC 12228; assay: MBC assay; format: cell-based; conditions: colony counting, 99.9% criterion
From the text: as §2

[17] = tested on: Streptococcus agalactiae ATCC 13813; assay: MBC assay; format: cell-based; conditions: colony counting, 99.9% criterion
From the text: as §2

[18] = tested on: Streptococcus dysgalactiae CVCC 3938; assay: MBC assay; format: cell-based; conditions: colony counting, 99.9% criterion
From the text: as §2

mouse erythrocytes = assay: Hemolytic activity; format: cell-based; conditions: 1 h, 37 °C, absorbance 540 nm
Protocol: Equal volumes of the erythrocyte suspension and the peptide dilutions were combined and incubated for one hour at 37 °C. Subsequently, the mixture was centrifuged at 2000 rpm for 5 min, and the supernatant was transferred to a 96-well plate. The absorbance was then measured at 540 nm. Triton X-100 and physiological saline were employed as positive and negative controls, respectively. The percentage of hemolysis was calculated via the following formula:Hemolysis (%) = [(Apeptide − Asaline)/(A0.1% Triton X-100 − Asaline)] × 100%.

HaCaT cells = assay: Cytotoxicity analysis (CCK-8); format: cell-based, human; conditions: 2–256 µg/mL, 24 h, CCK-8, absorbance 450 nm, six replicates
Protocol: HaCaT cells, at a density of 2.5 × 10^5 cells/mL, were inoculated into 96-well plates and incubated in a cell culture incubator for 24 h. Following the removal of the medium, an equal volume of peptide solution, ranging in concentration from 2 to 256 µg/mL, was added, and the cells were incubated for an additional 24 h. The medium was subsequently removed, and the wells were washed three times with saline. CCK-8 solution ([…], 100 µL per well) was then added, and the plates were incubated for 2 h. Absorbance was measured at 450 nm using a microplate reader. Saline served as the negative control, while the medium without cells was used as the blank control. Six replicates were set for each concentration. Cell survival is calculated as follows: (As − Ab)/(Ac − Ab) × 100%.
As: Absorbance value of the experimental group (medium containing cells, sample, CCK-8)
Ac: Absorbance value of the control group (medium containing cells, no sample, CCK-8)
Ab: Absorbance value of the blank group (medium without cells, no sample, CCK-8)

[19] = concentration range 20–2560 µg/mL

Structure (SMILES) | MIC (S. aureus ATCC 25923 [1]) [µg/mL] | MIC (S. aureus CVCC 546 [2]) [µg/mL] | MIC [3] [µg/mL] | MIC [4] [µg/mL] | MIC [5] [µg/mL] | MIC [6] [µg/mL] | MIC [7] [µg/mL] | MIC [8] [µg/mL] | MIC [9] [µg/mL] | MBC (S. aureus ATCC 25923 [10]) [µg/mL] | MBC (S. aureus CVCC 546 [11]) [µg/mL] | MBC [12] [µg/mL] | MBC [13] [µg/mL] | MBC [14] [µg/mL] | MBC [15] [µg/mL] | MBC [16] [µg/mL] | MBC [17] [µg/mL] | MBC [18] [µg/mL] | cytotoxicity towards HaCaT cells (HaCaT cells) | hemolysis (mouse erythrocytes; [19]) | other results
CC[C@H](C)[C@@H]1NC(=O)[C@H](CO)NC(=O)[C@H](CCCCN)NC(=O)[C@@H]2CSSC[C@@H](C(=O)N[C@@H](Cc3ccc(O)cc3)C(=O)O)NC(=O)[C@H](CCCCN)NC(=O)[C@@H]3CSSC[C@H](NC(=O)[C@H](CCCCN)NC(=O)[C@H](CCSC)NC(=O)[C@H](CC(=O)O)NC(=O)[C@H](CC(=O)O)NC(=O)[C@H](CCC(=O)O)NC(=O)[C@H](CO)NC(=O)[C@H](Cc4c[nH]c5ccccc45)NC(=O)[C@@H]4CCCN4C(=O)CNC(=O)[C@H](CC(N)=O)NC(=O)[C@@H](NC(=O)CNC(=O)[C@H](Cc4ccccc4)NC(=O)CN)CSSC[C@H](NC(=O)[C@H](Cc4ccc(O)cc4)NC(=O)CNC(=O)CNC(=O)[C@H](CCCCN)NC(=O)[C@H](Cc4ccc(O)cc4)NC(=O)CNC(=O)[C@H](CCCCN)NC1=O)C(=O)N[C@@H](C)C(=O)N[C@@H](CCCCN)C(=O)NCC(=O)NCC(=O)N[C@@H](Cc1ccccc1)C(=O)N[C@@H](CC(C)C)C(=O)N3)C(=O)N[C@@H](Cc1c[nH]cn1)C(=O)N[C@@H](CC(N)=O)C(=O)N[C@@H](Cc1c[nH]cn1)C(=O)N2 [PPI42, reference compound] (H-GFGCNGPWSEDDMKCHNHCKSIKGYKGGYCAKGGFLCKCY-OH; disulfide 4-30, 15-37, 19-39) | 8 (≈ 1.82 µM) | 2 (≈ 0.456 µM) | 2 (≈ 0.456 µM) | >64 | >64 | 8 (≈ 1.82 µM) | 4 (≈ 0.912 µM) | 0.5 (≈ 0.114 µM) | 4 (≈ 0.912 µM) | 16 (≈ 3.65 µM) | 4 (≈ 0.912 µM) | 8 (≈ 1.82 µM) | >64 | >64 | 8 (≈ 1.82 µM) | 8 (≈ 1.82 µM) | 0.5 (≈ 0.114 µM) | 4 (≈ 0.912 µM) | growth-promoting effects |  | hemolysis (mouse erythrocytes; 2560 µg/mL): 10%; hemolysis (mouse erythrocytes; up to 1280 µg/mL): minimal hemolysis
CC[C@H](C)[C@@H]1NC(=O)[C@H](CO)NC(=O)[C@H](CCCCN)NC(=O)[C@@H]2CSSC[C@@H](C(=O)N[C@@H](Cc3ccc(O)cc3)C(=O)O)NC(=O)[C@H](CCCCN)NC(=O)[C@@H]3CSSC[C@H](NC(=O)[C@H](CCCCN)NC(=O)[C@H](CCSC)NC(=O)[C@H](CC(=O)O)NC(=O)[C@H](CC(=O)O)NC(=O)[C@H](CCC(=O)O)NC(=O)[C@H](CC(N)=O)NC(=O)[C@H](Cc4c[nH]c5ccccc45)NC(=O)[C@@H]4CCCN4C(=O)CNC(=O)[C@H](CC(N)=O)NC(=O)[C@@H](NC(=O)CNC(=O)[C@H](Cc4ccccc4)NC(=O)CN)CSSC[C@H](NC(=O)[C@H](Cc4ccc(O)cc4)NC(=O)CNC(=O)CNC(=O)[C@H](CCCCN)NC(=O)[C@H](Cc4ccc(O)cc4)NC(=O)CNC(=O)[C@H](CCCCN)NC1=O)C(=O)N[C@@H](C)C(=O)N[C@@H](CCCCN)C(=O)NCC(=O)NCC(=O)N[C@@H](Cc1ccccc1)C(=O)N[C@@H](CC(C)C)C(=O)N3)C(=O)N[C@@H](Cc1c[nH]cn1)C(=O)N[C@@H](CC(N)=O)C(=O)N[C@@H](Cc1c[nH]cn1)C(=O)N2 [PPI45] (H-GFGCNGPWNEDDMKCHNHCKSIKGYKGGYCAKGGFLCKCY-OH; disulfide 4-30, 15-37, 19-39) | 16 (≈ 3.62 µM) | 4 (≈ 0.906 µM) | 16 (≈ 3.62 µM) | >64 | >64 | 4 (≈ 0.906 µM) | 4 (≈ 0.906 µM) | 0.5 (≈ 0.113 µM) | 1 (≈ 0.226 µM) | 16 (≈ 3.62 µM) | 4 (≈ 0.906 µM) | 16 (≈ 3.62 µM) | >64 | >64 | 4 (≈ 0.906 µM) | 4 (≈ 0.906 µM) | 0.5 (≈ 0.113 µM) | 4 (≈ 0.906 µM) | did not exhibit cytotoxicity | no hemolysis | 
CC[C@H](C)[C@@H]1NC(=O)[C@H](CO)NC(=O)[C@H](CCCCN)NC(=O)[C@@H]2CSSC[C@@H](C(=O)N[C@@H](Cc3ccc(O)cc3)C(=O)O)NC(=O)[C@H](CCCCN)NC(=O)[C@@H]3CSSC[C@H](NC(=O)[C@H](CCCNC(=N)N)NC(=O)[C@H](CC(C)C)NC(=O)[C@H](CC(=O)O)NC(=O)[C@H](CC(=O)O)NC(=O)[C@H](CCC(=O)O)NC(=O)[C@H](CO)NC(=O)[C@H](Cc4c[nH]c5ccccc45)NC(=O)[C@@H]4CCCN4C(=O)CNC(=O)[C@H](CC(N)=O)NC(=O)[C@@H](NC(=O)CNC(=O)[C@H](Cc4ccccc4)NC(=O)CN)CSSC[C@H](NC(=O)[C@H](Cc4ccc(O)cc4)NC(=O)CNC(=O)CNC(=O)[C@H](CCCCN)NC(=O)[C@H](Cc4ccc(O)cc4)NC(=O)CNC(=O)[C@H](CCCCN)NC1=O)C(=O)N[C@@H](C)C(=O)N[C@@H](CCCCN)C(=O)NCC(=O)NCC(=O)N[C@@H](Cc1ccccc1)C(=O)N[C@@H](CC(C)C)C(=O)N3)C(=O)N[C@@H](Cc1c[nH]cn1)C(=O)N[C@@H](CC(N)=O)C(=O)N[C@@H](Cc1c[nH]cn1)C(=O)N2 [PPI47] (H-GFGCNGPWSEDDLRCHNHCKSIKGYKGGYCAKGGFLCKCY-OH; disulfide 4-30, 15-37, 19-39) | 16 (≈ 3.64 µM) | 4 (≈ 0.909 µM) | 16 (≈ 3.64 µM) | >64 | >64 | 4 (≈ 0.909 µM) | 4 (≈ 0.909 µM) | 0.5 (≈ 0.114 µM) | 2 (≈ 0.455 µM) | 16 (≈ 3.64 µM) | 4 (≈ 0.909 µM) | 16 (≈ 3.64 µM) | >64 | >64 | 8 (≈ 1.82 µM) | 8 (≈ 1.82 µM) | 0.5 (≈ 0.114 µM) | 4 (≈ 0.909 µM) | did not exhibit cytotoxicity | no hemolysis | 

Reference: paper PMC11764660, “Self-Assembled Peptide Hydrogels PPI45 and PPI47: Novel Drug Candidates for Staphylococcus aureus Infection Treatment” (Gels, 2025)
